Measurements as given in patent publication US20020187534A1, “Treating cancer by increasing intracellular malonyl CoA levels” (priority 1999, published 2002).

What was measured:
[1] = tested on: SKBR3 and MCF7 human breast cancer cells; assay: Clonogenic assay (Example 2); assay type: cell-based; conditions: for cytotoxicity in clonogenic assays: inhibitors 6 hours, dose range for ACC or FAS inhibition
Description: Cells and inhibitors were as described for Example 1. For clonogenic assays, 4×10^5 cells were plated in […] flasks with inhibitors added for 6 hours in concentrations listed. Equal numbers of treated cells and controls were plated in 60 mm dishes. Clones were stained and counted after 7 to 10 days.

MCF-7 cells [2] = assay: Cell growth inhibition assay, crystal violet; assay type: cell-based, human; conditions: for growth inhibition: 48 hours after treatment, Example 12
[3] = tested on: SKBR3 and MCF7 human breast cancer cell lines; assay: Fatty acid synthesis activity, [U-14C]-acetate pulse labeling of lipids; assay type: cell-based; conditions: for [U14C-acetate] incorporation into lipids: SKBR3 and MCF7, labeled for 2 hours after exposure to inhibitor; for dose range of maximal inhibition of FA synthesis: all cell lines tested
Description: The human breast cancer cell lines, SKBR3 and MCF7 were maintained in RPMI with 10% fetal bovine serum. Cells were screened periodically for Mycoplasma contamination (Gen-probe). All inhibitors were added as stock 5 mg/ml solutions in DMSO. For fatty acid synthesis activity determinations, 5×10^4 cells/well in 24 well plates were pulse labeled with [U-^14C]-acetate after exposure to drug, and lipids were extracted and quantified as described previously (Pizer, et al., 1988). For MCF7 cells, pathway activity was determined after 2 hours of inhibitor exposure.

[4] = Single dose LD10 determination; assay type: in vivo; conditions: BALB/c mice
MCF-7 xenografts [5] = assay: Histology of treated xenograft tumors; assay type: in vivo, mouse; conditions: 6 hours after 30 mg/kg
Description: (§1) In an additional parallel experiment to histologically examine treated and control tumors, 6 C75 treated and 6 vehicle control mice were sacrificed 6 hours after treatment. Tumor and normal tissues were fixed in neutral-buffered formalin, processed for routine histology, and immunohistochemistry for FAS was performed. Immunohistochemistry for FAS was performed on the MCF-7 xenografts using a mouse monoclonal anti-FAS antibody (Alo, et al., 1996) at 1:2000 on the Dako Immunostainer using the LSAB2 detection kit.

MCF-7 xenografts [6] = assay: Growth of subcutaneous MCF-7 xenografts in athymic nude mice; assay type: in vivo, mouse; conditions: 30 mg/kg intraperitoneal weekly, after 32 days
Description: Subcutaneous flank xenografts of the human breast cancer cell line, MCF-7 in nu/nu female mice (Harlan) were used to study the anti-tumor effects of C75 in vivo. All animal experiments complied with institutional animal care guidelines. All mice received a 90-day slow-release subcutaneous estrogen pellet (Innovative Research) in the anterior flank 7 days before tumor inoculation. […] MCF-7 cells were xenografted from culture in DMEM supplemented with 10% FBS and insulin 10 μg/ml.
(§2) Treatment began when measurable tumors developed about 10 days after inoculation. Eleven mice (divided among two separate experiments of 5 and 6 mice each) were treated intraperitoneally with wcekly doses of C75 at 30 mg/kg in 0.1 ml RPMI. […] Eleven control mice (divided in the same way as the treatment groups) received RPMI alone. Tumor volume was measured with calipers in three dimensions. Experiment was terminated when controls reached the surrogate endpoint.

[7] = Toxicity to host in nude mice (tolerability, histology of liver and other host tissues, weight); assay type: in vivo, mouse
Description: as §2, §1

[8] = tested on: fatty acid synthesis in MCF-7 xenografts and liver; assay: Ex vivo [U-14C]-acetate labeling of tumor and liver of xenografted mice; assay type: in vivo, mouse; conditions: 30 mg/kg intraperitoneal, within 3 hours
Description: In a parallel experiment to determine fatty acid synthesis activity in treated and control tumors, a group of MCF-7 xenografted mice were treated with C75 or vehicle at above doses and sacrificed after 3 hours. Tumor and liver tissue were ex vivo labeled with [U^14-C] acetate, lipids were extracted and counted as described (Pizer, et al, 1996).

MCF-7 cells [9] = assay: Malonyl-CoA levels by reversed phase HPLC; assay type: cell-based, human; conditions: for malonyl-CoA levels increased over controls: 1 hour exposure at 10 μg/ml
Description: Malonyl-CoA levels were measured in MCF-7 cells using the HPLC method of Corkey, et al. (1988, “Analysis of acyl-coenzyme A esters in biological samples,” Methods in Enzymology, 166:55-70). Briefly, 2.5×10^5 cells/well in 24 well plates were subjected to 1.2 ml of 10% TCA at 4° C. after various drug treatments. The pellet mass was recorded and the supernatant was washed 6 times with 1.2 ml of ether and reduced to dryness using vacuum centrifugation at 25° C. Coenzyme-A esters were separated and quantitated using reversed phase HPLC on a 5μ Supelco C18 column with a Waters HPLC system running Millenium^32 software monitoring 254 nm as the maximum absorbance for coenzyme-A. The following gradients and buffers were utilized: Buffer A: 0.1 M potassium phosphate, pH 5.0, Buffer B: 0.1 M potassium phosphate, pH 5.0, with 40% acetonitrile. Following a 20 min. isocratic run with 92% A, 8% B at 0.4 ml/min, flow was increased to 0.8 ml/min over one minute whereupon a linear gradient to 10% B was run until 24 min. then held at 10% B until 50 min. where a linear gradient was run to 100% B at 55 min., completing at 60 min. The following coenzyme-A esters (Sigma) were run as standards: malonyl-CoA, acetyl-CoA, glutathione-CoA, succinyl-CoA, HMG-CoA, and free CoA. Samples and standards were dissolved in 50 μl of buffer A. Coenzyme-A esters eluted sequentially as follows: malonyl-CoA, glutathione-CoA, free CoA, succinyl-CoA, HMG-CoA, and acetyl-CoA. Quantitation of coenzyme-A esters was performed by the Millenium^32 software.

MCF-7 cells [10] = assay: Fatty acid oxidation, 14CO2 released from [14C]palmitate; assay type: cell-based, human
Description: Fatty acid oxidation was measured by trapping and counting the ^14CO2 released from the oxidation of [^14C]palmitate in base. 1×10^6 MCF-7 cells were plated in T-25 flasks in triplicate and incubated overnight at 37° C. […] After 2 hours, medium with drugs was removed and cells were preincubated for 30 minutes with 1.5 ml of the following buffer: 114 mM NaCl, 4.7 mM KCI, 1.2 mM KH2PO4, 1.2 mM MgSO4, glucose 11 mM. After preincubation, 200 μl of assay buffer was added containing: 114 mM NaCl, 4.7 mM KCl, 1.2 mM KH2PO4, 1.2 mM MgSO4, glucose 11 mM, 2.5 mM palmitate (containing with 100 μCi of [1-^14C]palmitate) bound to albumin, 0.4 mM L-camitine, and cells were incubated at 37° C. for 2 hours. Following the incubation, 400 μl of benzothonium hydrochloride was added to the center well to collect released ^14CO2. […] The flasks with wells were then incubated for 2 hours at 37° C. after which the benzothonium hydrochloride was removed and counted for ^14C.

[11] = in vivo; cited from earlier work
MCF-7 cells [12] = assay: Clonogenic assay (Example 11); assay type: cell-based, human; conditions: 6 h exposure; TOFA at 5 μg/ml
Description: After overnight incubation at 37° C., 1×10^6 MCF-7 cells were exposed to drugs as indicated for 6 h, washed, detached by trypsin digestion, counted and plated at 1000 or 500 cells/60-mm plate in triplicate. Colonies were stained with crystal violet and counted 4-6 days after plating. Controls consisted of cells incubated with DMSO without drugs. Error bars represent standard error of the mean.

CPT-1 = assay: Carnitine palmitoyltransferase-1 (CPT-1) assay in permeabilized MCF-7 cells; assay type: cell-based, human
Description: MCF-7 cells were plated in RPMI 1640 with 10% fetal bovine serum at 1×10^6 cells in six-well plates in triplicate. Following overnight incubation at 37° C., medium was removed and replaced with 700 μl of assay medium consisting of: 50 mM imidazole, 70 mM KCl, 80 mM sucrose, 1 mM EGTA, 2 mM MgCl2, 1 mM DTT, 1 mM KCN, 1 mM ATP, 0.1% fatty acid free bovine serum albumin, 70 μM palmitoyl-CoA, 0.25 μCi (methyl-^14C]L-camitine, 40 μg digitonin with or without 20 μM malonyl-CoA or other indicated inhibitors.
After incubation for 3 or 6 minutes at 37° C., the reaction was stopped by the addition of 500 μl of ice-cold 4 M perchloric acid. Cells were then harvested and centrifuged at 10,000× g for 5 min. The pellet was washed with 500 μl ice cold perchloric acid and centrifuged again. The resulting pellet was resuspended in 800 μl dH2O and extracted with 150 μl of butanol. The butanol phase was counted by liquid scintillation and represents the acylcarnitine derivative.

SKBR3 and MCF7 cells = assay: Apoptosis by multiparameter flow cytometry, merocyanine 540 staining; assay type: cell-based, human
Description: Apoptosis was measured by multiparameter flow cytometry using a FACStar^Plus flow cytometer equipped with argon and krypton lasers (Becton Dickinson). Apoptosis was quantified using merocyanine 540 staining (Sigma), which detects altered plasma membrane phospholipid packing that occurs early in apoptosis, added directly to cells from culture (Pizer, et al., 1998; Mower, et al., 1994, “Decreased membrane pospholipid packing and decreased cell size precede DNA cleavage in mature mouse B cell apoptosis, J. Immunol., 152:4832-4842). In some experiments, chromatin conformational changes of apoptosis were simultaneously measured as decreased staining with LDS-751 (Exciton) (Frey, et al., 1995, “Nucleic acid dyes for detection of apoptosis in live cells,” Cytometry, 21:265-274). […] Cells were stained with LDS-751 at a final concentration of 100 nM from a 1 mM stock in DMSO. The merocyanine 540-positive cells were marked by an increase in red fluorescence, collected at 575+/−20 nm, 0.5 to 2 logs over merocyanine 540-negative cells. […] Data were collected and analyzed using CellQuest software (Becton Dickinson). In these experiments, all LDS-751 dim cells were merocyanine 540 bright, however a population of merocyanine 540 bright cells were detected that were not yet LDS-751 dim. All merocyanine 540 bright cells were classified as apoptotic.

M-CPT-1 = conditions: cited from earlier work

## C=C1C(=O)OC(CCCCCCCC)C1C(=O)O (stereo not shown) [C75]
[1]
  cytotoxicity in clonogenic assays: significantly cytotoxic
MCF-7 cells [2]
  growth inhibition: significant growth inhibition over control
[3]
  [U14C-acetate] incorporation into lipids: inhibited
  dose range of maximal inhibition of FA synthesis: ~10 µg/mL
[4]
  LD10: 40 mg/kg
MCF-7 xenografts [5]
  tumor histology: numerous apoptotic bodies throughout the tumor tissue
MCF-7 xenografts [6]
  difference in tumor growth compared to vehicle controls: greater than eight-fold
[7]; 30 mg/kg, outbred nude mice
  tolerability: well tolerated
[7]; following C75 treatment
  histological analysis of liver and other host tissues: no evidence of any short or long term toxicity
[7]; weekly intraperitoneal treatment
  toxicity noted: transient reversible weight loss was the only toxicity noted
[8]
  reduction of fatty acid synthesis in MCF-7 xenografts: 70%
  reduction of fatty acid synthesis in ex vivo labeled liver: 76%
MCF-7 cells [9]
  malonyl-CoA levels increased over controls: 370%

## O=C([O-])C1(CCCCCCOc2ccc(Cl)cc2)CO1.[Na+] (stereo not shown) [Etomoxir]
MCF-7 cells [2]; 200 μg/ml, the only effective dose
  reduction in growth: significant reduction in growth
MCF-7 cells [2]
  growth inhibition: significant growth inhibition over control
MCF-7 cells [2]; doses known to inhibit CPT-1 and fatty acid oxidation, 48 or 72 h, Example 10
  growth inhibition or cytotoxicity: no significant growth inhibition or cytotoxicity
MCF-7 cells [2]; over 72 h, Example 7
  growth inhibition of MCF-7 cells: dose dependent growth inhibition of MCF-7 cells over 72 h greater than that of C75 at 5 μg/ml
MCF-7 cells [10]; 50 μg/ml
  fatty acid oxidation decreased over control: > 50%
[11]
  toxicity in humans treated for diabetes: without significant toxicity or weight loss
MCF-7 cells [12]
  cytotoxicity in clonogenic assay: not significantly cytotoxic
CPT-1; 10 μg/ml
  reduction in CPT-1 activity: 75%

## CCCCCCCCCCCCCCOc1ccc(C(=O)O)o1 [TOFA, 5-(tetradecyloxy)-2-furoic acid]
[1]
  reduction in clonogenicity: no reduction
  cytotoxicity in clonogenic assays: non-toxic or stimulatory
[1]; MCF7 cells
  TOFA rescue of C75 cytotoxicity in clonogenic assay: modest rescue
  TOFA rescue of cerulenin cytotoxicity in clonogenic assay: modest rescue
MCF-7 cells [10]; data not shown
  changes in fatty acid oxidation: nor does TOFA cause significant changes in fatty acid oxidation
[3]
  [U14C-acetate] incorporation into lipids: inhibited
  dose range of maximal inhibition of FA synthesis: 1 to 5 µg/mL
SKBR3 and MCF7 cells
  increase in apoptosis: < 5%
SKBR3 and MCF7 cells; SKBR3 and MCF7 cells
  TOFA rescue from cerulenin induced apoptosis: rescued cells from cerulenin induced apoptosis
MCF-7 cells [9]; 20 μg/ml
  reduction of malonyl-CoA levels: 60%
MCF-7 cells [12]
  cytotoxicity in clonogenic assay: not significantly cytotoxic
CPT-1
  direct inhibition of CPT-1: does not cause CPT-1 inhibition

## C/C=C/C/C=C/CCC(=O)[C@H]1O[C@H]1C(N)=O [cerulenin]
[1]
  reduction in clonogenicity: 70%
  cytotoxicity in clonogenic assays: significantly cytotoxic
MCF-7 cells [10]; 10 μg/ml, 2 hours
  reduction in fatty acid oxidation compared to control: ~50%
[3]; MCF-7, 10 μg/ml, within 2 hours
  reduction in fatty acid synthesis: > 50%
[3]
  [U14C-acetate] incorporation into lipids: inhibited
  dose range of maximal inhibition of FA synthesis: ~10 µg/mL
SKBR3 and MCF7 cells
  apoptosis: > 85%
MCF-7 cells [9]; 10 μg/ml
  increase in malonyl-CoA: nine-fold
MCF-7 cells [9]
  malonyl-CoA levels increased over controls: 930%

## CC(C)(COP(=O)(O)OP(=O)(O)OC[C@H]1O[C@@H](n2cnc3c(N)ncnc32)[C@H](O)[C@@H]1OP(=O)(O)O)[C@@H](O)C(=O)NCCC(=O)NCCSC(=O)CC(=O)O [malonyl-CoA]
M-CPT-1
  sensitivity of M-CPT-1 versus L-CPT-1 to malonyl-CoA inhibition: 100 fold
